The species entered for assay [1] is Mus musculus. Nature of the assay: Analgesic activity in acetic acid induced mouse assessed as assessed as reduction in acetic acid induced writhing […]. The class given is functional, organism-based. On the technique in general: Writhing tests count abdominal constrictions after an irritant is injected.
In assay [2] the target is Glutamate NMDA receptor (Rattus norvegicus) (UniProt P35439+Q00959+Q00960+Q00961+Q62645+Q8VHN2+Q9R1M7). In words: Displacement of 3H-(+)-MK 801 from NMDA receptor in rat brain incubated for 80 mins by liquid scintillation counting method. The class given is tissue-based. The settings on record: filed as antagonist.
In assay [3] the test system is Rattus norvegicus. Nature of the assay: Anti-ulcerative activity in aspirin induced Sprague-Dawley rat ulcer model assessed as inhibition of ulcer index at 20 mg/kg,po. The class given is functional.
In assay [4] the test system is Rattus norvegicus. Nature of the assay: Antisecretory activity in Sprague-Dawley rat assessed as inhibition of gastric acid accumulation at 20 mg/kg,ID. The class given is functional.
Another assay relates to Lasiodiplodia theobromae. Nature of the assay: Antifungal activity against Lasiodiplodia theobromae assessed as fungal growth inhibition at 100 ug/ml incubated for 4 days by disk method. The class given is functional. The following applies: 96 h, time 4 day.
The target of a further assay is D(1A) dopamine receptor (Sus scrofa, UniProt P50130). Nature of the assay: Displacement of [3H]SCH-23390 from porcine striatum dopamine D1 receptor incubated for 30 mins by radioligand competition binding assay based scintillation counter analysis. The class given is tissue-based. A general note: In a radioligand displacement assay an active substance lowers the binding of a labelled ligand.

The nature of assay [5]: Displacement of [3H]SCH-23390 from porcine striatum dopamine D2 receptor incubated for 30 mins by radioligand competition binding assay based scintillation counter analysis. The class given is tissue-based, Sus scrofa.
Another assay deals with L5178Y. Nature of the assay: Cytotoxicity against […] assessed as inhibition of cell viability at 10 ug/ml. The following applies: Mus musculus. The class given is functional.
Assay [6] addresses T1, Acetylcholinesterase (Homo sapiens, UniProt P22303). Nature of the assay: Inhibition of AChE in human erythrocytes using acetylthiocholine iodide as substrate at 50 uM incubated for 20 mins by DTNB reagent based Ellman's method. The following applies: Erythrocyte. The class given is cell-based. Background: Ellman's reagent forms a yellow product with free thiols.
Assay [7] deals with Oocyte. Nature of the assay: Antagonist activity at human dopamine D4 receptor polymorphic variant 2 expressed in Xenopus laevis oocytes at 1 uM incubated for 2 mins. The class given is cell-based. The following applies: filed as antagonist.
Assay [8] deals with Oocyte. In words: Antagonist activity at human dopamine D4 receptor polymorphic variant 4 expressed in Xenopus laevis oocytes at 1 uM incubated for 2 mins. The class given is cell-based. The following applies: filed as antagonist.
The test system of assay [9] is Oocyte. Nature of the assay: Antagonist activity at human dopamine D4 receptor polymorphic variant 7 expressed in Xenopus laevis oocytes at 1 uM incubated for 2 mins. The class given is cell-based.
The next assay concerns Pseudomonas aeruginosa. In words: Antibacterial activity against Pseudomonas aeruginosa ATTC-27853 assessed as bacterial growth inhibition incubated for 24 hrs by disk diffusion assay. The class given is functional.
The subject of the next assay is Escherichia coli. Nature of the assay: Antibacterial activity against Escherichia coli ATTC-25922 assessed as bacterial growth inhibition incubated for 24 hrs by disk diffusion assay. The class given is functional.
The next assay concerns Klebsiella pneumoniae. In words: Antibacterial activity against Klebsiella pneumoniae assessed as bacterial growth inhibition incubated for 24 hrs by disk diffusion assay. The class given is functional.
For a further assay, the system named is Staphylococcus aureus. In words: Antibacterial activity against Staphylococcus aureus ATTC-25923 assessed as bacterial growth inhibition incubated for 24 hrs by disk diffusion assay. The class given is functional.
The subject of assay [10] is Mus musculus. In words: Analgesic activity in po dosed phenylquinone induced mouse assessed as assessed as reduction in phenylquinone induced writhing. The class given is functional.
In assay [11] the target is Sigma non-opioid intracellular receptor 1 (Cavia porcellus, UniProt Q60492). In words: Displacement of [3H](+)-pentazocine from sigma 1 receptor in guinea pig brain membranes measured after 150 mins by liquid scintillation counting method. The class given is cell membranes, Membrane.
Assay [12] is described as follows: Selectivity index, ratio of Ki for displacement of [3H]-(+)-pentazocine from sigma1 receptor in guinea pig brain membrane to Ki for displacement of [3H]DTG from sigma 2 receptor in Sprague-Dawley rat liver membranes. The class given is cell membranes.
The species named for the next assay is Homo sapiens. In words: Selectivity index, ratio of IC50 for […] (unknown origin).
Assay [13] addresses T1, Acetylcholinesterase. In words: Inhibition of AChE (unknown origin) using acetylthiocholine iodide as substrate incubated for 10 mins by DTNB reagent based Ellman's method.

Usually inhibition in vivo stands for how much of the control response was suppressed. Broadly, the inhibition is the change of the read-out against control, counted positive when it falls. One may read the pKi as the negative decadic logarithm of the Ki, by convention in mol/L. Broadly, the MIC is the lowest concentration found to suppress growth. The term ED50 denotes the dose that gives a 50% effect, or the effect in half of the subjects. Usually pIC50 stands for the negative decadic logarithm of the IC50, by convention in mol/L. A higher pIC50 goes with a small IC50.

pIC50, pKi: −log10 of the molar value. Values after ≈ are worked out from the molar mass of the structure shown.

T1 sequence (P22303 whole entry): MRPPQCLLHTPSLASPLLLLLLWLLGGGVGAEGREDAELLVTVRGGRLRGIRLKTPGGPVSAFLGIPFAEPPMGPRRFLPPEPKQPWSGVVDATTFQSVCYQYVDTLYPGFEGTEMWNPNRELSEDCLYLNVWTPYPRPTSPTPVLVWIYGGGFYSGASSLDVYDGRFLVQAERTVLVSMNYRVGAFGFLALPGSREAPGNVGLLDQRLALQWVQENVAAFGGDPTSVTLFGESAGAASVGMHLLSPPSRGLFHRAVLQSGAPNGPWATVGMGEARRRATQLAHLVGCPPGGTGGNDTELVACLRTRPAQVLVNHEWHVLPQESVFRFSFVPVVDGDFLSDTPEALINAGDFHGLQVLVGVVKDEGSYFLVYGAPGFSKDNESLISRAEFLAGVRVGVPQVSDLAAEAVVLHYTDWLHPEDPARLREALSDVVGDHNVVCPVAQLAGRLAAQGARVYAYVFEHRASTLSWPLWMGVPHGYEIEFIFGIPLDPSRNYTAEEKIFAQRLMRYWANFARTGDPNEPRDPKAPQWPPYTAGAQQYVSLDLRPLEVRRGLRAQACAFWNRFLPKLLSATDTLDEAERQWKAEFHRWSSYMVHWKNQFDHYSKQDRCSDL
Sequence of Sigma non-opioid intracellular receptor 1 (Q60492 whole entry): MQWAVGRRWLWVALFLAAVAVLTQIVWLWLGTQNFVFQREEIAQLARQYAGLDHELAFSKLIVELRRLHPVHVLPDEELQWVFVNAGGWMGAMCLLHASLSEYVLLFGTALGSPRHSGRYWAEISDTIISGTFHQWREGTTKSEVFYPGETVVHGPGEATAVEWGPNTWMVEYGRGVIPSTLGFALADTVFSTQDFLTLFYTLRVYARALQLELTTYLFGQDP
Sequence of D(1A) dopamine receptor (P50130 whole entry): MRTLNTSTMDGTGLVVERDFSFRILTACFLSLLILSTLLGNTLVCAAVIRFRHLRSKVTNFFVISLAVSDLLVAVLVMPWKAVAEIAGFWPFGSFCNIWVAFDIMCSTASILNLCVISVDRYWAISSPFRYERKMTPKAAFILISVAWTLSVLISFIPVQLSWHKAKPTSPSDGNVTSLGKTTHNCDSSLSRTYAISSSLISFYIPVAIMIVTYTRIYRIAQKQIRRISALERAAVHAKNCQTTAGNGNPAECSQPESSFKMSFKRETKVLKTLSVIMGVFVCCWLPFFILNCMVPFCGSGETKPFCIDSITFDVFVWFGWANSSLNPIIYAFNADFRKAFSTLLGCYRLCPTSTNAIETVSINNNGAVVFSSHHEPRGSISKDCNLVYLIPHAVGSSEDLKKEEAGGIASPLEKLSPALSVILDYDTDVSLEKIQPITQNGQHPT

Consider `COc1cc2c(cc1OC)C1CN(C)CC(C2)O1` (stereo not given), for which the EC50 in the assay filed under Mus musculus [1] was 77 mg/kg. Further, the Activity in [2] is 95%.
On to `CC(CC1CCCc2ccccc21)NCC(C)c1ccccc1` (stereo not given), for which the inhibition in vivo at 20 mg/kg in the assay on Rattus norvegicus [3] came to 3.2%; in the assay on Rattus norvegicus [4], 71.3%.
In the case of `COC1=CC(=O)C(C)=C2C[C@H](C)OC=C12`, the inhibition at 100 µg/mL with Lasiodiplodia theobromae came out at 69%.
In the case of `NC[C@@H]1O[C@H](C23CC4CC(CC(C4)C2)C3)Cc2c1ccc(O)c2O`, the pKi at D(1A) dopamine receptor is 8.41; in [5], 5.73.
`COc1cc(O)c(C)c2c1CO[C@@H](C)C2`: the inhibition at 10 µg/mL in the assay on L5178Y came out at 3.4%.
On Acetylcholinesterase [6], `COC1(C)Cc2c(C=O)c(O)c(Cc3c(O)c(C=O)c4c(c3O)COC(C)(OC)C4)c(O)c2CO1` (stereo not given) displayed an inhibition of 53%.
In the case of `COc1ccc(N2CCN(CC[C@@H]3O[C@@H](C)Cc4cc(OC)c(OC)cc43)CC2)cc1`, the inhibition in the assay on Oocyte [7] stood at 66%; in the assay on Oocyte [8] it was 46%; in the assay on Oocyte [9], 33%.
For the compound `COc1cc(O)c(C)c2c1[C@@H](OC)O[C@@H](C)C2`, the inhibition at 100 µg/mL in the assay with Lasiodiplodia theobromae is 76%.
As for `COc1cc2c(c(OC)c1OC)C(C)(c1n[nH]c(=S)n1-c1ccc(C)cc1)OCC2` (stereo not given), the MIC in the assay with Pseudomonas aeruginosa, with Escherichia coli, in the assay with Klebsiella pneumoniae and in the assay on Staphylococcus aureus was 6.25 µg/mL (≈ 14.6 µM) each time.
On to `COc1cc(O)c(C)c2c1C(=O)O[C@@H](C)C2`, for which the inhibition at 10 µg/mL in the assay with L5178Y came out at 59.5%.
`CC1=Cc2c(C=O)c(O)c(Cc3c(O)c(C=O)c4c(c3O)COC(C)=C4)c(O)c2CO1` came in with an inhibition at Acetylcholinesterase [6] of 46%.
With `CC(CC1OCCc2ccccc21)NCCc1ccccc1` (stereo not given), in the assay with Rattus norvegicus [4], the inhibition in vivo at 20 mg/kg was 71.3%.
`CN/C(=N\CCSCc1nc[nH]c1C)NC#N` [CIMETIDINE]: in the assay with Rattus norvegicus [4], the inhibition in vivo at 20 mg/kg worked out at 51.6%.
On to `COC(=O)[C@]1(C)Cc2cc(OC)c(OC)cc2C2(CCN(C)CC2)O1.Cl`, for which the EC50 in the assay filed under Mus musculus [1] turned out to be 44 mg/kg.
Regarding `CN1CCC2(CC1)COCc1ccccc12`, the ED50 in the assay with Mus musculus [10] was 12 mg/kg.
For `COC1Cc2ccccc2C2(CCN(CCc3ccccc3)CC2)O1` (stereo not given), the negative-log Ki (pKi) in assay [11] was 8.68. Moreover, the Ratio Ki in assay [12] came to 148.
Turning to `COc1cc2c(cc1OC)C(=O)/C(=C/c1cc[n+](Cc3ccc(F)cc3)cc1)OC2`, in the assay filed under Homo sapiens, the Ratio IC50 was greater than 5000. For the same compound, at Acetylcholinesterase [13], the pIC50 is 9.82.
Turning to `CC(C)NC(C)CC1OCCc2ccccc21` (stereo not given), the inhibition in vivo at 20 mg/kg with Rattus norvegicus [4] stood at 61%.
For the compound `COc1cc(O)c(C)c2c1CO[C@@H](C)[C@@H]2O`, in the assay on L5178Y, the inhibition at 10 µg/mL stood at 26.2%.
Take `COc1cc(O)cc2c1C(=O)O[C@@H](C)C2`: the inhibition at 10 µg/mL in the assay with L5178Y is 13.7%.

The values above are taken from ChEMBL document CHEMBL5113374, “Research progress in biological activities of isochroman derivatives” (Eur J Med Chem, 2021).
